Measured values published in ChEMBL document CHEMBL1201862, “PubChem BioAssay data set” (2004).
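How tested: cells in 96-well plates exposed to compound for 48 hours at five concentrations. Abbreviation: GI50, concentration required for 50% inhibition of growth.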 Active and inactive are the calls of the source. Cut-off read from the data, not from the text of the source: active = GI50 up to about 1.1 µM and inactive = higher.

What was measured:
Test in all cases: growth of human tumour cells (NCI), 48 h
HCT-116 = tested on: HCT-116
SR = tested on: SR
OVCAR-4 = tested on: OVCAR-4
IGROV-1 = tested on: IGROV-1
HCC 2998 = tested on: HCC 2998
HOP-62 = tested on: HOP-62
CAKI-1 = tested on: CAKI-1
A498 = tested on: A498
SF-268 = tested on: SF-268
ACHN = tested on: ACHN
OVCAR-5 = tested on: OVCAR-5
M14 = tested on: M14
DU-145 = tested on: DU-145
MOLT-4 = tested on: MOLT-4
COLO 205 = tested on: COLO 205
SK-MEL-2 = tested on: SK-MEL-2
RXF 393 = tested on: RXF 393
TK-10 = tested on: TK-10
CCRF-CEM = tested on: CCRF-CEM
Malme-3M = tested on: Malme-3M

| SMILES | GI50 (HCT-116) | GI50 (SR) | GI50 (OVCAR-4) | GI50 (IGROV-1) | GI50 (HCC 2998) | GI50 (HOP-62) | GI50 (CAKI-1) | GI50 (A498) | GI50 (SF-268) | GI50 (ACHN) | GI50 (OVCAR-5) | GI50 (M14) | GI50 (DU-145) | GI50 (MOLT-4) | GI50 (COLO 205) | GI50 (SK-MEL-2) | GI50 (RXF 393) | GI50 (TK-10) | GI50 (CCRF-CEM) | GI50 (Malme-3M) |
| --- | --- | --- | --- | --- | --- | --- | --- | --- | --- | --- | --- | --- | --- | --- | --- | --- | --- | --- | --- | --- |
| COc1ccc(-n2c(=O)c3nc(S)[nH]c3n(-c3ccc(OC)cc3)c2=S)cc1 | > 100 µM (inactive) | > 100 µM (inactive) | > 100 µM (inactive) | > 100 µM (inactive) | > 100 µM (inactive) | > 100 µM (inactive) | > 100 µM (inactive) | > 100 µM (inactive) | > 100 µM (inactive) | > 100 µM (inactive) | > 100 µM (inactive) | > 100 µM (inactive) | > 100 µM (inactive) | > 100 µM (inactive) | > 100 µM (inactive) | > 100 µM (inactive) | > 100 µM (inactive) | > 100 µM (inactive) | > 100 µM (inactive) |  |
| Cc1cc2ncn(CC(=O)O)c2cc1C | > 100 µM (inactive) | > 100 µM (inactive) | > 100 µM (inactive) | > 100 µM (inactive) |  | > 100 µM (inactive) | > 100 µM (inactive) | > 100 µM (inactive) | > 100 µM (inactive) | > 100 µM (inactive) | > 100 µM (inactive) | > 100 µM (inactive) | > 100 µM (inactive) | > 100 µM (inactive) | > 100 µM (inactive) | > 100 µM (inactive) | > 100 µM (inactive) | > 100 µM (inactive) | > 100 µM (inactive) | > 100 µM (inactive) |
| NC(=O)C(=O)C(c1ccccc1)S(=O)(=O)Cc1ccccc1 (centres undefined) | > 100 µM (inactive) | > 100 µM (inactive) | > 100 µM (inactive) | > 100 µM (inactive) | > 100 µM (inactive) | > 100 µM (inactive) | > 100 µM (inactive) |  | > 100 µM (inactive) | > 100 µM (inactive) | > 100 µM (inactive) | > 100 µM (inactive) | > 100 µM (inactive) | 16.5 µM (inactive) | > 100 µM (inactive) | > 100 µM (inactive) | > 100 µM (inactive) | > 100 µM (inactive) | > 100 µM (inactive) |  |
| O=C(O)CSc1cc(-c2ccccc2)nc2ccccc12 | 5.41 µM (inactive) | 27.9 µM (inactive) | 64 µM (inactive) | 57.7 µM (inactive) |  | 48.2 µM (inactive) | 67.5 µM (inactive) | 28.5 µM (inactive) | 35 µM (inactive) | 71.1 µM (inactive) | > 100 µM (inactive) | 50.2 µM (inactive) | 34 µM (inactive) | 46.3 µM (inactive) |  | 26.5 µM (inactive) | 27.4 µM (inactive) | 64.1 µM (inactive) |  | 22.8 µM (inactive) |
| CCc1ccc2oc(-c3cc(O)c(-c4nc5cc(CC)ccc5o4)cc3O)nc2c1 | > 100 µM (inactive) | > 100 µM (inactive) |  | > 100 µM (inactive) | > 100 µM (inactive) | > 100 µM (inactive) |  | > 100 µM (inactive) | > 100 µM (inactive) | > 100 µM (inactive) | > 100 µM (inactive) | > 100 µM (inactive) | > 100 µM (inactive) | > 100 µM (inactive) | > 100 µM (inactive) | > 100 µM (inactive) |  | > 100 µM (inactive) | > 100 µM (inactive) |  |
| CCOC(=O)C(NC(=O)c1cccc(Cl)c1)(Nc1cccc(C)c1)C(F)(F)F (centres undefined) | 19.1 µM (inactive) | 28.7 µM (inactive) | 21.8 µM (inactive) | 12.8 µM (inactive) | 16.7 µM (inactive) | 17.7 µM (inactive) | 20.7 µM (inactive) |  | 15.3 µM (inactive) | 15.9 µM (inactive) |  |  | 29.3 µM (inactive) | 20.4 µM (inactive) | 20.1 µM (inactive) | 16.3 µM (inactive) | 13 µM (inactive) | 29.8 µM (inactive) | 11.6 µM (inactive) | 16.6 µM (inactive) |
| O=C(O)CCN1CCN(CCC(=O)O)CCN(CCC(=O)O)CC1 | 32.6 µM (inactive) | 44.6 µM (inactive) | > 100 µM (inactive) | > 100 µM (inactive) | > 100 µM (inactive) | > 100 µM (inactive) | > 100 µM (inactive) | > 100 µM (inactive) |  | > 100 µM (inactive) | > 100 µM (inactive) | > 100 µM (inactive) | > 100 µM (inactive) | > 100 µM (inactive) | 92.7 µM (inactive) | > 100 µM (inactive) |  | > 100 µM (inactive) | > 100 µM (inactive) | > 100 µM (inactive) |
| c1ccc(-c2cc(-c3ccccc3)nc(-c3ccncc3)c2)cc1 | 48.8 µM (inactive) | > 100 µM (inactive) | 16.4 µM (inactive) | 25.9 µM (inactive) | > 100 µM (inactive) | 16.1 µM (inactive) | > 100 µM (inactive) |  | > 100 µM (inactive) | 70.8 µM (inactive) | > 100 µM (inactive) | 42.4 µM (inactive) | > 100 µM (inactive) | > 100 µM (inactive) | > 100 µM (inactive) | > 100 µM (inactive) | 44.6 µM (inactive) | 40.4 µM (inactive) | > 100 µM (inactive) | > 100 µM (inactive) |
| CN1C(=O)c2ccccc2NC(=O)C12O[C@@H]2c1cccc(O)c1 (some centres undefined) | > 100 µM (inactive) | > 100 µM (inactive) | > 100 µM (inactive) | > 100 µM (inactive) | > 100 µM (inactive) | > 100 µM (inactive) | > 100 µM (inactive) | > 100 µM (inactive) | > 100 µM (inactive) | > 100 µM (inactive) | 95.9 µM (inactive) | > 100 µM (inactive) | > 100 µM (inactive) | > 100 µM (inactive) | > 100 µM (inactive) | > 100 µM (inactive) |  | > 100 µM (inactive) | > 100 µM (inactive) | > 100 µM (inactive) |
| CC(=O)O[C@H]1C(=O)[C@@]2(C)C(C(OC(=O)c3ccccc3)[C@]3(O)CC(OC(=O)C(O)C(NC(=O)c4cccc(Cl)c4)c4ccccc4)C(C)=C1C3(C)C)[C@]1(OC(C)=O)CO[C@@H]1C[C@@H]2O (some centres undefined) | 0.16 µM (active) | 0.218 µM (active) | 3.96 µM (inactive) | 0.624 µM (active) | 0.0664 µM (active) | 0.518 µM (active) | 6.64 µM (inactive) |  | 0.268 µM (active) | 1.82 µM (inactive) | 1.1 µM (active) | 0.851 µM (active) | 0.546 µM (active) | 1.01 µM (active) | 0.385 µM (active) | 0.656 µM (active) |  | 2.51 µM (inactive) | 0.262 µM (active) | 2.75 µM (inactive) |
| COc1cccc(O)c1-c1cc(=O)c2c(O)c(OC)c(OC)c(OC)c2o1 [SKULLCAPFLAVONE II] | 32.1 µM (inactive) | 4.82 µM (inactive) | 30.3 µM (inactive) | 24.2 µM (inactive) | 7.59 µM (inactive) | 17.5 µM (inactive) | 22.8 µM (inactive) |  | 35.3 µM (inactive) | 38.9 µM (inactive) | 50.9 µM (inactive) | 23.5 µM (inactive) | 16.4 µM (inactive) | 29.2 µM (inactive) | 16.5 µM (inactive) | 20.9 µM (inactive) | 14.1 µM (inactive) | 44.8 µM (inactive) | 34.5 µM (inactive) | 36.4 µM (inactive) |
